One data set concerns the target T1, Q46 protein aggregates (Homo sapiens, UniProt P42858).
T1 construct: fused on or other part: GST at the N-terminus, cut off with thrombin before the test to start aggregation; The wells held aggregated Q46 without GST
As to the kind of experiment: Q46 radioligand binding assay (RBA). Particulars: 10 nM ligand [3H3]MK-3328. In outline: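 Aggregates from thrombin-cleaved GST-Q46 (16 h, 37° C) at 5 μM monomer-equivalent were pre-incubated 20 min at room temperature with compound (1 μM to 30 pM) in 150 mM NaCl, 50 mM Tris pH 8.0, then 60 min at 37° C with 10 nM [^3H3]MK-3328. Bound radioactivity was filtered and counted; IC50 came from a four-parameter global fit normalized to vehicle and 3 μM unlabelled MK-3328.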

The test system of data set [1] is recombinant tau and amyloid β1-42 (Aβ1-42) aggregates. As to conditions: affinity for tau aggregates versus Aβ1-42 aggregates; cited from earlier work.
Data set [2] deals with zQ175 knock-in mice (WT, heterozygous, homozygous). As to the kind of experiment: In vivo PET imaging in zQ175 knock-in mouse model of Huntington's disease. Particulars: for Average % SUV: i.v., 63-minute PET scan, Mean ± SD. The protocol:
In Vivo Imaging with [^11C]-Compound 3 of Method 14 (5-[(5-[^11C-]-Methoxypyridin-2-yl)methoxy]-2-(pyridin-3-yl)-1,3-benzoxazole)) in a Knock-In Model of Huntington's Disease
^11C-labeled Compound 3 of Method 14 was evaluated for its ability to penetrate the central nervous system of mice following systemic administration, and its binding to the cerebellum, striatum, hippocampus, and cortex was quantitated. Three groups of animals were compared: wild-type, and mice that were heterozygous or homozygous for the zQ175 knock-in allele. (Menalled L. B. et al. Comprehensive behavioral and molecular characterization of a new knock-in mouse model of Huntington's disease: zQ175. PLoS One 2012, 7, e49838).
Forty-eight nine months old animals (16 WT, 16 heterozygous and 16 homozygous zQ175) were obtained from The Jackson Laboratory, USA. The animals were housed at the animal department of Karolinska University Hospital in a temperature (±21° C.) and humidity (±40%) controlled environment on a 12 h light/dark cycle (lights on 7:00 AM) with access to food and water ad libitum. Animals were allowed at least one week to habituate to the animal department before the start of the imaging sessions. All experiments were conducted during the light phase of the cycle.
Animals were anesthetized with inhalation of isoflurane (4-5% isoflurane in 100% oxygen). After induction of anesthesia, the isoflurane concentration was lowered to 1.5-2% (50/50 air/oxygen) and the animals were positioned in the scanner in a designated mouse bed. A cannula was inserted in the tail vein through which the radioligand was administered. A 63-minute dynamic PET scan was initiated immediately upon intravenous injection of the radioligand. Upon completion of the imaging sessions, each animal was returned to its cage.
Image and Statistical Analysis
The acquired list mode data, was reconstructed into 25 timeframes (63 min scan=4×10 s, 4×20 s, 4×60 s, 7×180 s, 6×360 s). The image reconstruction was made with a fully 3-dimensional maximum-likelihood expectation maximization algorithm (MLEM) with 20 iterations, without scatter and attenuation correction. The reconstructed dynamic PET images were co-registered to an inbuilt mouse MRI template available in PMOD, which also incorporates volumes of interest (VOI's) sets (PMOD Technologies Ltd., Zurich, Switzerland). With the help of these VOI sets, decay corrected time activity curves (TAC) were generated. The regional brain uptake values were expressed as percent standard uptake value (% SUV), which normalizes for injected radioactivity and body weight. In addition, the area under the curve (AUC) was calculated. The selected regions of interest (ROI) were: cortex, hippocampus, striatum and cerebellum.

The structures appear in SMILES notation. A value given as a limit tells only on which side of the number the result lay.

T1 sequence (P42858 with tags, fused parts or gaps with the stated changes, form open): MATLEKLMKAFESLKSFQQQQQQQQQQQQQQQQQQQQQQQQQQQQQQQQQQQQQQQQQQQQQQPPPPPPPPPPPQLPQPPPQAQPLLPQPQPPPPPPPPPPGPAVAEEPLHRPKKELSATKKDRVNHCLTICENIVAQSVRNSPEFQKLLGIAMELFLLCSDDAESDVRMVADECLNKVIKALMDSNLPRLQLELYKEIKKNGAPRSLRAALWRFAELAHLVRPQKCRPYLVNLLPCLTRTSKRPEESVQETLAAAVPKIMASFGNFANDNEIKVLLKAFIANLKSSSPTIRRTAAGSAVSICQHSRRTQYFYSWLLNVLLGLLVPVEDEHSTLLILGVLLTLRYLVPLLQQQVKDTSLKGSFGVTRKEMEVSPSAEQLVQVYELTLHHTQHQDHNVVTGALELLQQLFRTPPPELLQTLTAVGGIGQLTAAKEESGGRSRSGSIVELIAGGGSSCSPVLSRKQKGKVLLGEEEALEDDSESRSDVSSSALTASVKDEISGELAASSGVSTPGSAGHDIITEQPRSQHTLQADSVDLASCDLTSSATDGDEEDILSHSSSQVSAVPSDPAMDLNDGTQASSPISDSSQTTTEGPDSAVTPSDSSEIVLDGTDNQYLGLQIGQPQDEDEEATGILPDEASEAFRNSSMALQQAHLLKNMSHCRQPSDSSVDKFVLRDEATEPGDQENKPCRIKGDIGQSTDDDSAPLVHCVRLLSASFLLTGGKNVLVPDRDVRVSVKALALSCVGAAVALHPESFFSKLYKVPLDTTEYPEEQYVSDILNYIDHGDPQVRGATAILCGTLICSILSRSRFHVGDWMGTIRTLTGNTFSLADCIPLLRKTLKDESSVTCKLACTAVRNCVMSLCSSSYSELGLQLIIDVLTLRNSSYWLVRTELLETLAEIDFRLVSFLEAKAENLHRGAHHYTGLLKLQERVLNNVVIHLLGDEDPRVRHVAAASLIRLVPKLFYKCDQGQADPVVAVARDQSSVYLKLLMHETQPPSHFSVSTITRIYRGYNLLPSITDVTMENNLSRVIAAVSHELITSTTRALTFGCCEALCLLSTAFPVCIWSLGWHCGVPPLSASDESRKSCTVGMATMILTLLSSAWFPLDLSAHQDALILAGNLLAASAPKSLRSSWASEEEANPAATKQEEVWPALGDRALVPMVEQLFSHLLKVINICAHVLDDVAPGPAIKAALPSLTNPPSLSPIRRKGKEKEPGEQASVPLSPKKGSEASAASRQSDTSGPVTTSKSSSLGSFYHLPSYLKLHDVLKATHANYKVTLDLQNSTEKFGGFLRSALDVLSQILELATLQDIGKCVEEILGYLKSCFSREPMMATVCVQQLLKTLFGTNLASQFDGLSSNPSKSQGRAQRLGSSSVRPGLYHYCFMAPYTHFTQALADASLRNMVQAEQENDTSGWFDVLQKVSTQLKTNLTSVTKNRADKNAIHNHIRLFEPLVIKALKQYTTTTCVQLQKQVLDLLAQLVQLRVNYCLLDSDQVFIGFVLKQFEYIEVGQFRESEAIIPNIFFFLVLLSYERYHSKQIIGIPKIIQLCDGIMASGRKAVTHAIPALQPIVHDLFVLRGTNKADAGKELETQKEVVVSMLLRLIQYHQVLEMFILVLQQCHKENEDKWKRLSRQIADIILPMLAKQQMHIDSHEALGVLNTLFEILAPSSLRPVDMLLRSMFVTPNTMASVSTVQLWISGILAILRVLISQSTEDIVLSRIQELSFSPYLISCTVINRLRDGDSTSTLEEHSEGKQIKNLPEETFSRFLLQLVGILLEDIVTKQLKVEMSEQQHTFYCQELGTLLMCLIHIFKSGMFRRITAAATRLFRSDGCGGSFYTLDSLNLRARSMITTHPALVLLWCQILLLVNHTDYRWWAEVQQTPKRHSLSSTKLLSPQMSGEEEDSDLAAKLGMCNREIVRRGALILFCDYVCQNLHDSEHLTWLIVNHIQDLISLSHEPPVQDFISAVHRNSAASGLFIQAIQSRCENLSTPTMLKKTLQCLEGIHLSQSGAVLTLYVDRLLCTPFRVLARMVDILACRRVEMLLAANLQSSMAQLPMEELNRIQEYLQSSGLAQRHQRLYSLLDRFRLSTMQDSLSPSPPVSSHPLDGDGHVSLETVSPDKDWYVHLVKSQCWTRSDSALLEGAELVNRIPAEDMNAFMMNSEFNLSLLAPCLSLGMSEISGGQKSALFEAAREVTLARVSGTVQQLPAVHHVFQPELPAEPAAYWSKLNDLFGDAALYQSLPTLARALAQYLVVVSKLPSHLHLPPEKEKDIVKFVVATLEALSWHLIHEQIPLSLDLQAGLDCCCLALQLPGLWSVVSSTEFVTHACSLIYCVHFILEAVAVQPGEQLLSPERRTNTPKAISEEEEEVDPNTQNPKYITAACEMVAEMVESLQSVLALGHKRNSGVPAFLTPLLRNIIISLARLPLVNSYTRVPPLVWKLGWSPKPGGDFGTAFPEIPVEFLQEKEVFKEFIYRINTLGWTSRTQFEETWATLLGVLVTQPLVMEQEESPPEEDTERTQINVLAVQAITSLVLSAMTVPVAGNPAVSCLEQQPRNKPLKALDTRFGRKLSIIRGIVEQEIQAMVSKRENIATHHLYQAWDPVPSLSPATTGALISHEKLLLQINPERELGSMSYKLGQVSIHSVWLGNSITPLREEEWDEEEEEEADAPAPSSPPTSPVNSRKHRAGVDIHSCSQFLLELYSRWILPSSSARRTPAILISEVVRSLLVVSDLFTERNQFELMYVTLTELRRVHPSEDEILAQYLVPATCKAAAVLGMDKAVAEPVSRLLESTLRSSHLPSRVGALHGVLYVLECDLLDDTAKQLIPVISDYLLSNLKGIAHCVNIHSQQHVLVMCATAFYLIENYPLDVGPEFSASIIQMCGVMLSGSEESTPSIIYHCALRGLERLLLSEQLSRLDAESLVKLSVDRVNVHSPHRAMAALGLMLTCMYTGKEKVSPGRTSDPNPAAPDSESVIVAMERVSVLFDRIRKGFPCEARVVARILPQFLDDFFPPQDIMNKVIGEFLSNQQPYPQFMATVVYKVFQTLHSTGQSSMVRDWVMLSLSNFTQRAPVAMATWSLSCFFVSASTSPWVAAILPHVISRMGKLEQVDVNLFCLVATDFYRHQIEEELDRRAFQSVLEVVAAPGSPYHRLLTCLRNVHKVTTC

A word on the IC50: it is the concentration at which inhibition is half-maximal. Take `O=C(Nc1ccc2oc(-c3cccnc3)nc2c1)OCc1ccc(O)cn1` [(5-hydroxypyridin-2-yl)methyl N-[2-(pyridin-3-yl)-1,3-benzoxazol-5-yl]carbamate]: on Q46 protein aggregates, the IC50 is less than 100 nM.
`COc1ccc(COC(=O)Nc2ccc3oc(-c4cccnc4)nc3c2)nc1` [(5-methoxypyridin-2-yl)methyl N-[2-(pyridin-3-yl)-1,3-benzoxazol-5-yl]carbamate]: the IC50 on Q46 protein aggregates was less than 100 nM.
For `O=C(Nc1ccc2oc(-c3ccccc3)nc2c1)c1ccccc1` [N-(2-phenyl-1,3-benzoxazol-5-yl)benzamide], the IC50 on Q46 protein aggregates was less than 100 nM.
On the same count and under the same terms, to `COc1ccc(Nc2ccc3oc(-c4cccnc4)nc3c2)cc1` [N-(4-methoxyphenyl)-2-(pyridin-3-yl)-1,3-benzoxazol-5-amine] belongs 100 to 500 nM; to `COc1cncc(NC(=O)c2ccc3oc(-c4cccnc4)nc3c2)c1` [N-(5-methoxypyridin-3-yl)-2-(pyridin-3-yl)-1,3-benzoxazole-5-carboxamide], less than 100 nM.
On the same count and under the same terms, to `COc1ccc(COc2ccc3oc(-c4ccc(NC(C)=O)nc4)nc3c2)nc1` [N-(5-{5-[(5-methoxypyridin-2-yl)methoxy]-1,3-benzoxazol-2-yl}pyridin-2-yl)acetamide] belongs less than 100 nM.
The molecule `O=C(Nc1ccc2oc(-c3cccnc3)nc2c1)c1cc2ccccc2o1` [N-[2-(pyridin-3-yl)-1,3-benzoxazol-5-yl]-1-benzofuran-2-carboxamide] showed an IC50 on Q46 protein aggregates of less than 100 nM.
Consider `O=C(Nc1ccc2oc(-c3cccnc3)nc2c1)c1ccc2occc2c1` [N-[2-(pyridin-3-yl)-1,3-benzoxazol-5-yl]-1-benzofuran-5-carboxamide], for which the IC50 on Q46 protein aggregates is less than 100 nM.
For the molecule `O=C(Nc1ccc2oc(-c3cccnc3)nc2c1)C1Cc2ccccc2O1` (centres unmarked) [N-[2-(pyridin-3-yl)-1,3-benzoxazol-5-yl]-2,3-dihydro-1-benzofuran-2-carboxamide], on Q46 protein aggregates, the IC50 is less than 100 nM.
`O=C(Nc1ccc2oc(-c3cccnc3)nc2c1)c1ccc2c(c1)OCO2` [N-[2-(pyridin-3-yl)-1,3-benzoxazol-5-yl]-2H-1,3-benzodioxole-5-carboxamide]: the half-inhibitory concentration (IC50) on Q46 protein aggregates was less than 100 nM.
Same read-out and setting: to `O=C(Nc1ccc2oc(-c3cccnc3)nc2c1)c1ccc(-c2ncccn2)cc1` [N-[2-(pyridin-3-yl)-1,3-benzoxazol-5-yl]-4-(pyrimidin-2-yl)benzamide] belongs less than 100 nM; to `O=C(Nc1ccc2oc(-c3cccnc3)nc2c1)c1ccc(C(F)(F)F)nc1` [N-[2-(pyridin-3-yl)-1,3-benzoxazol-5-yl]-6-(trifluoromethyl)pyridine-3-carboxamide], less than 100 nM; to `O=C(Nc1ccc2oc(-c3cccnc3)nc2c1)c1ccc2ccccc2n1` [N-[2-(pyridin-3-yl)-1,3-benzoxazol-5-yl]quinoline-2-carboxamide], less than 100 nM.
Turning to `O=C(Nc1ccc2oc(-c3cccnc3)nc2c1)c1cnc2ccccc2n1` [N-[2-(pyridin-3-yl)-1,3-benzoxazol-5-yl]quinoxaline-2-carboxamide], the IC50 on Q46 protein aggregates is less than 100 nM.
On to `O=C(Nc1ccc2oc(-c3cccnc3)nc2c1)c1ccc2nccnc2c1` [N-[2-(pyridin-3-yl)-1,3-benzoxazol-5-yl]quinoxaline-6-carboxamide], for which, at Q46 protein aggregates, the IC50 is less than 100 nM.
The same measure, in the same setting: for `COc1ccc(CNc2ccc3oc(-c4cccnc4)nc3c2)cc1` [N-[(4-methoxyphenyl)methyl]-2-(pyridin-3-yl)-1,3-benzoxazol-5-amine] the value was less than 100 nM.
Same read-out and setting: to `CNc1ccc(COc2ccc3oc(-c4cccnc4)nc3c2)nc1` [N-methyl-6-({[2-(pyridin-3-yl)-1,3-benzoxazol-5-yl]oxy}methyl)pyridin-3-amine] belongs less than 100 nM.
Regarding `CN(C)c1ccc(/C=C/c2nc3ccc(I)cc3[nH]2)cc1` [SBIM-3, 4-[(E)-2-(6-iodo-1H-benzimidazol-2-yl)ethenyl]-N,N-dimethylaniline], the “ratio of Kd values” in data set [1] is 2.73.
As for `CNCc1cccc(-c2nc3cc(OCc4ccc(OC)cn4)ccc3o2)c1` [[(3-{5-[(5-methoxypyridin-2-yl)methoxy]-1,3-benzoxazol-2-yl}phenyl)methyl](methyl)amine], the IC50 on Q46 protein aggregates is less than 100 nM.
For `COc1ccc(COc2ccc3oc(-c4cccc(CN(C)C)c4)nc3c2)nc1` [[(3-{5-[(5-methoxypyridin-2-yl)methoxy]-1,3-benzoxazol-2-yl}phenyl)methyl]dimethylamine], the IC50 at Q46 protein aggregates is less than 100 nM.
As for `CNCc1cncc(-c2nc3cc(OCc4ccc(OC)cn4)ccc3o2)c1` [[(5-{5-[(5-methoxypyridin-2-yl)methoxy]-1,3-benzoxazol-2-yl}pyridin-3-yl)methyl](methyl)amine], the IC50 at Q46 protein aggregates was less than 100 nM.
In the case of `[11CH3]Oc1ccc(COc2ccc3oc(-c4cccnc4)nc3c2)nc1` [^11C-labeled Compound 3 of Method 14, 5-[(5-[^11C-]-Methoxypyridin-2-yl)methoxy]-2-(pyridin-3-yl)-1,3-benzoxazole], the “binding of the radioligand relative to wild type” value in data set [2] (all four brain regions, mice homozygous for the zQ175 allele) is listed as “Increased binding”. Moreover, the “Average % SUV” value in data set [2] (cerebellum, WT mice (n = 7)) amounted to 74.2 ± 3.0 % SUV; in data set [2] (cerebellum, het zQ175 mice (n = 7)), 78.4 ± 5.9 % SUV; in data set [2] (cerebellum, hom zQ175 mice (n = 6)), 88.2 ± 5.0 % SUV; in data set [2] (cortex, WT mice (n = 7)), 69.1 ± 3.1 % SUV; in data set [2] (cortex, het zQ175 mice (n = 7)) it was 75.1 ± 4.3 % SUV; in data set [2] (cortex, hom zQ175 mice (n = 6)) it was 93.9 ± 8.0 % SUV. Further, the “Average % SUV” value in data set [2] (hippocampus, WT mice (n = 7)) amounted to 72.0 ± 3.6 % SUV; in data set [2] (hippocampus, het zQ175 mice (n = 7)), 80.3 ± 5.5 % SUV; in data set [2] (hippocampus, hom zQ175 mice (n = 6)), 104.6 ± 7.9 % SUV; in data set [2] (striatum, WT mice (n = 7)) it was 68.8 ± 2.7 % SUV; in data set [2] (striatum, het zQ175 mice (n = 7)) it was 79.7 ± 5.8 % SUV; in data set [2] (striatum, hom zQ175 mice (n = 6)), 104.4 ± 9.1 % SUV.
In turn, `CN(C)CCOc1ccc(COc2ccc3oc(-c4cccnc4)nc3c2)cc1` [dimethyl({2-[4-({[2-(pyridin-3-yl)-1,3-benzoxazol-5-yl]oxy}methyl)phenoxy]ethyl})amine] displayed an IC50 on Q46 protein aggregates of 100 to 500 nM.
Turning to `CN(C)CCCOc1ccc(COc2ccc3oc(-c4cccnc4)nc3c2)cc1` [dimethyl({3-[4-({[2-(pyridin-3-yl)-1,3-benzoxazol-5-yl]oxy}methyl)phenoxy]propyl})amine], the IC50 on Q46 protein aggregates was less than 100 nM.
Still for that read-out and setting: to `CNCc1ccc(COc2ccc3oc(-c4cccnc4)nc3c2)cc1` [methyl({[4-({[2-(pyridin-3-yl)-1,3-benzoxazol-5-yl]oxy}methyl)phenyl]methyl})amine] belongs 100 to 500 nM; to `CC(C)(C)OC(=O)N1CCN(c2ccc3oc(-c4cccnc4)nc3c2)CC1` [tert-butyl 4-[2-(pyridin-3-yl)-1,3-benzoxazol-5-yl]piperazine-1-carboxylate], 100 to 500 nM.

The record behind these values is patent US12258355B2, “Probes for imaging huntingtin protein” (CHDI Foundation, Inc., priority 2014, dated 2025).
